Laboratory results: publication PMC11134387, “Cancer-Stem-Cell Phenotype-Guided Discovery of a Microbiota-Inspired Synthetic Compound Targeting NPM1 for Leukemia” (JACS Au, 2024)

Tests used:
[1] = system: HCT-116-derived colonospheres; experiment: Formation of HCT-116-derived colonospheres (CSC tumorspheres); format: cell-based; conditions: Homo sapiens, HCT-116; @5 µM (footnote d); read-out: Inhibition of tumorsphere formation (%) HCT-116
Procedure: (BD Biosciences, Franklin Lakes, NJ, USA). All cells were maintained at 37 °C in a humidified incubator in an atmosphere of 5% CO2, and passaged every 2–3 days.
Additionally, they were cultured using RPMI media (Gibco/Life Technologies; Grand […]
Colonospheres, mamospheres and colony formation unit assays. 30.000 cells per well of MCF-7 cells (mamos pheres), HCT-116 cells (colonospheres) and CD34+ cells from patients (colony formation units) were seeded in serum free non- adherent medium or […]
MethoCult (Stem Cell). […]

NPM1 C+ = experiment: Confocal microscopy of NPM1 subcellular localization in OCI-AML3 cells; format: cell-based; conditions: OCI-AML3, 10 μM
Procedure: To further elucidate the mechanism of action of UCM-13369, we studied the influence of the compound on the subcellular localization of the protein by confocal microscopy, using an Alexa Fluor-647-conjugated NPM1 primary antibody (Figure 4D).
Cells were plated onto glass coverslips or Greiner Bio-One μClear black 96-well plate (7.5 × 10^4 cells per well) and treated with compound UCM-13369 for 48 h. Then, cells were fixed with 4% paraformaldehyde for 15 min, permeabilized with 0.1% Triton X-100 for 30 min, and blocked in 5% bovine serum albumin for 1 h at rt. Incubation with primary antibodies against NPM1 (7H10B9, NOVUS Biologicals) was carried out overnight at 4 °C. Alexa Fluor-488-conjugated antimouse or antirabbit antibodies (Molecular Probes) were used for detection of the reported proteins by confocal microscopy. Nuclei were counterstained with 4′,6-diamidino-2-phenylindole (DAPI) bath. A total of 35 fields per well were acquired with ×40 magnification lens for those samples run in the Opera HCS system (PerkinElmer). Images were segmented using the DAPI staining and the coefficient of variation of NPM1 intensity per nucleus/cytoplasm was calculated using Definiens Developer XD software.

c-Myc = experiment: qPCR and Western blot of c-Myc in OCI-AML3 cells; format: cell-based
Excerpt: We next studied the impact of UCM-13369 in the genes and/or expression levels of NPM1 and NPM1 C+ pathway components (Figure 4A), including the positive regulation of c-Myc[34] and the negative regulation of FBXW7 and the pro-apoptotic CASP8.[35] […] The inhibition of NPM1 was also observed in MOLM13 cells expressing WT NPM1 (Figure S1B). […]
quantitative real-time PCR (qPCR), or were sorted using a FACS BD INFL UX cell sorter (BD Biosciences, Franklin Lakes, NJ, USA). All cells were maintained at 37 °C in a humidified incubator in an atmosphere of 5% CO2, and passaged every 2–3 days. […]
Primary cells. […] After 72 h in maintenance cells were ready to start the assays. […]
Colonospheres, mamospheres and colony formation unit assays. […] After 10 days (mamospheres and colonospheres) and 14 days (CFU-E) we quantified t he number of colonies/spheres and number of cell s (CFU-E) by […]
RNA and DNA extraction and quantitative PCR (qPCR). […] Gene expression was studied from the extracted RNA, processed into cDNA to quantify the expression of NPM1 and c-MYC. […]
The relative amount of targets was determined by the comparative Ct method.
Western blot. […] Lysates wer e cl ear ed by centrifugation (14,000g, 4 °C, 30 min), protein concentration determined by Bradford […]
Proteomic analysis. […] Follows the image of a Venn diagram showing the number of proteins detected in each of the pop ulations and the proteins that converg e […]

HCT-116 = experiment: Cytotoxic effect in colon tumor cell line (MTT); conditions: Homo sapiens, HCT-116, read-out: Viability (%) HCT-116, @5 µM (footnote d)
Procedure: The cytotoxic effect was determined in breast (MCF-7) and colon (HCT-116) tumor cell lines using MTT assays.
Cells were seeded at 3 × 10^4 cells/mL in 96-well plates. The test compound was diluted in PBS. […] Viability was evaluated by MTT or WST-1 and dose/response curves were performed.

In the case of `COc1ccc(C2Cc3[nH]c4ccccc4c3C(CCNCC3CC3)C2N)cc1` (stereo not shown) [4b, 4-{2-[(Cyclopropylmethyl)amino]ethyl}-2-(4-methoxyphenyl)-2,3,4,9-tetrahydro-1H-carbazol-3-amine], the inhibition at 5 µM [1] is reported as 100%, the “Subcellular localization of NPM1 (in words)” value (NPM1 C+) is reported as “reduction of the cytoplasmic form of the protein” and the “c-Myc levels (in words)” value (c-Myc) is reported as “reduced levels”. For the same compound, the viability at 5 µM (HCT-116) was 70%.
